Results taken from ChEMBL document CHEMBL2311391, “Novel inhibitors of protein arginine deiminase with potential activity in multiple sclerosis animal model” (J Med Chem, 2013).

Key:
[1] = species on record: Mus musculus; test: Toxicity in mouse at 10 mg for 5 days; assay type: organism-based; settings: in vivo, 120 h
[2] = species on record: Mus musculus; test: Antiinflammatory activity against MOG peptide-induced experimental autoimmune encephalomyelitis mouse model assessed as CD3 marker measured on day 24 after 2 weeks of treatment (reference value: 4.8 +/- 0.19 /mm'2); assay type: functional
[3] = species on record: Mus musculus; test: Toxicity in mouse at 20 mg as single dose; assay type: organism-based; settings: in vivo

SMILES: CC1(C)NC(=O)N(CN2CCNCC2)C1=O
- Activity [1]: Non-toxic
- Activity [2]: 3.8 mm2
- Activity [3]: Non-toxic
